PubChem BioAssay AID248 (DTP/NCI, 2004)
Values joined by “and” are separate entries in the source; they are usually repeats but may differ in a detail not shown here. Equal values may be shown once. Inconclusive results and toxic doses are left out. Rule as the data show it: active = T/C of 150% or more; inactive = T/C below 125%.

Test system: L1210 leukemia ip in BDF1 mice, survival T/C
Experiment: NCI In Vivo Anticancer Drug Screen. Data for tumor model L1210 Leukemia (intraperitoneal) in B6D2F1 (BDF1) mice
Conditions: endpoint: mean survival time, higher = longer survival
How it was run: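 Transplantable tumor model; survival measured in treated vs vehicle control mice. Value = treated/control.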

[1] = dose: 50.0 mg/kg/injection, schedule: Q01DX001 (ip), vehicle: Klucel (hydroxypropylcellulose) (HPC)
[2] = dose: 100.0 mg/kg/injection, schedule: Q01DX001 (ip), vehicle: Klucel (hydroxypropylcellulose) (HPC)
[3] = dose: 200.0 mg/kg/injection, schedule: Q01DX001 (ip), vehicle: Klucel (hydroxypropylcellulose) (HPC)
[4] = dose: 50.0 mg/kg/injection, schedule: Q01DX001 (ip), vehicle: saline

Measured: T/C

CC(C)NC(=O)c1cc(NC(=O)c2ccc(C(=O)Nc3cc(C(=O)NC(C)C)cc(C4=NCCN4)c3)cc2)cc(C2=NCCN2)c1
inactive: dose: 2.5 mg/kg/injection, schedule: Q01DX015 (ip), vehicle: water 89 % of control | dose: 5.0 mg/kg/injection, schedule: Q01DX015 (ip), vehicle: water 97 % of control | dose: 10.0 mg/kg/injection, schedule: Q01DX015 (ip), vehicle: water 92 % of control | dose: 18.75 mg/kg/injection, schedule: Q01DX015 (ip), vehicle: water 101 % of control | dose: 20.0 mg/kg/injection, schedule: Q01DX015 (ip), vehicle: water 95 % of control | dose: 37.5 mg/kg/injection, schedule: Q01DX015 (ip), vehicle: water 96 % of control

N#CC1(c2ccccc2)CCCCC1
inactive: dose: 100.0 mg/kg/injection, schedule: Q01DX001 (ip), vehicle: carboxymethylcellulose (CMC) 96 % of control | dose: 200.0 mg/kg/injection, schedule: Q01DX001 (ip), vehicle: carboxymethylcellulose (CMC) 89 % of control | dose: 400.0 mg/kg/injection, schedule: Q01DX001 (ip), vehicle: carboxymethylcellulose (CMC) 94 % of control

CCOC(=O)NC(NC(=O)OCC)C(Br)(Br)Br
inactive: dose: 25.0 mg/kg/injection, schedule: Q01DX001 (ip), vehicle: Klucel (hydroxypropylcellulose) (HPC) 112 % of control | dose: 25.0 mg/kg/injection, schedule: Q04DX002 (ip), vehicle: Klucel (hydroxypropylcellulose) (HPC) 104 % of control | [1] 112 % of control | dose: 50.0 mg/kg/injection, schedule: Q04DX002 (ip), vehicle: Klucel (hydroxypropylcellulose) (HPC) 106 % of control | [2] 108 % of control | dose: 100.0 mg/kg/injection, schedule: Q04DX002 (ip), vehicle: Klucel (hydroxypropylcellulose) (HPC) 104 % of control | [3] 116 % of control | dose: 200.0 mg/kg/injection, schedule: Q04DX002 (ip), vehicle: Klucel (hydroxypropylcellulose) (HPC) 102 % of control

C[N+](C)(C)Cc1cccc([N+](=O)[O-])c1
inactive: dose: 12.0 mg/kg/injection, schedule: Q01DX009 (ip), vehicle: saline 90 % of control | dose: 25.0 mg/kg/injection, schedule: Q01DX009 (ip), vehicle: saline 92 % of control | [4] 98 % of control | dose: 50.0 mg/kg/injection, schedule: Q01DX009 (ip), vehicle: saline 93 % of control

COc1ccccc1NC(N)=S
inactive: dose: 25.0 mg/kg/injection, schedule: Q01DX009 (ip), vehicle: Klucel (hydroxypropylcellulose) (HPC) 94 % of control | dose: 25.0 mg/kg/injection, schedule: Q04DX003 (ip), vehicle: Klucel (hydroxypropylcellulose) (HPC) 98 % of control | dose: 50.0 mg/kg/injection, schedule: Q01DX009 (ip), vehicle: Klucel (hydroxypropylcellulose) (HPC) 97 % of control | dose: 50.0 mg/kg/injection, schedule: Q04DX003 (ip), vehicle: Klucel (hydroxypropylcellulose) (HPC) 92 % of control | dose: 100.0 mg/kg/injection, schedule: Q01DX009 (ip), vehicle: Klucel (hydroxypropylcellulose) (HPC) 101 % of control | dose: 100.0 mg/kg/injection, schedule: Q04DX003 (ip), vehicle: Klucel (hydroxypropylcellulose) (HPC) 103 % of control

CC(=O)c1cc(F)ccc1O
inactive: dose: 100.0 mg/kg/injection, schedule: Q04DX003 (ip), vehicle: saline with Tween-80 102 % of control | dose: 200.0 mg/kg/injection, schedule: Q04DX003 (ip), vehicle: saline with Tween-80 97 % of control | dose: 400.0 mg/kg/injection, schedule: Q04DX003 (ip), vehicle: saline with Tween-80 94 % of control

COc1ccccc1NC(=O)CC(C)=O
inactive: [1] 100 % of control | [2] 100 % of control | dose: 100.0 mg/kg/injection, schedule: Q01DX009 (ip), vehicle: saline with Tween-80 103 % of control | [3] 106 % of control | dose: 200.0 mg/kg/injection, schedule: Q01DX009 (ip), vehicle: saline with Tween-80 95 % of control | dose: 400.0 mg/kg/injection, schedule: Q01DX009 (ip), vehicle: saline with Tween-80 97 % of control

CC(=O)c1ccccc1OB(F)F
inactive: [4] 98 % of control | dose: 100.0 mg/kg/injection, schedule: Q01DX001 (ip), vehicle: saline 98 % of control | dose: 200.0 mg/kg/injection, schedule: Q01DX001 (ip), vehicle: saline 106 % of control

CCOC(=O)C1NC(=O)N(c2ccccc2)C1=O (stereo unspecified)
inactive: dose: 100.0 mg/kg/injection, schedule: Q04DX003 (ip), vehicle: saline 103 % of control | dose: 200.0 mg/kg/injection, schedule: Q04DX003 (ip), vehicle: saline 108 % of control | dose: 400.0 mg/kg/injection, schedule: Q04DX003 (ip), vehicle: saline 104 % of control

CC(=O)NNC(=O)c1ccccn1
inactive: dose: 4.0 mg/kg/injection, schedule: Q03HX024 (ip), vehicle: saline 109 % of control | dose: 8.0 mg/kg/injection, schedule: Q03HX008 (ip), vehicle: saline 96 % of control | dose: 8.0 mg/kg/injection, schedule: Q03HX016 (ip), vehicle: saline 111 % of control | dose: 8.0 mg/kg/injection, schedule: Q03HX024 (ip), vehicle: saline 105 % of control | dose: 16.0 mg/kg/injection, schedule: Q03HX008 (ip), vehicle: saline 105 % of control | dose: 16.0 mg/kg/injection, schedule: Q03HX016 (ip), vehicle: saline 98 % of control | dose: 16.0 mg/kg/injection, schedule: Q03HX024 (ip), vehicle: saline 104 % of control | dose: 32.0 mg/kg/injection, schedule: Q01DX009 (ip), vehicle: saline 104 % of control | dose: 32.0 mg/kg/injection, schedule: Q01DX009 (oral), vehicle: saline 102 % of control | dose: 32.0 mg/kg/injection, schedule: Q03HX008 (ip), vehicle: saline 103 % of control | dose: 32.0 mg/kg/injection, schedule: Q03HX016 (ip), vehicle: saline 104 % of control | dose: 32.0 mg/kg/injection, schedule: Q03HX024 (ip), vehicle: saline 108 % of control | dose: 32.0 mg/kg/injection, schedule: Q04DX003 (ip), vehicle: saline 108 % of control | dose: 64.0 mg/kg/injection, schedule: Q01DX001 (ip), vehicle: saline 102 % of control | dose: 64.0 mg/kg/injection, schedule: Q01DX001 (oral), vehicle: saline 106 % of control | dose: 64.0 mg/kg/injection, schedule: Q01DX009 (ip), vehicle: saline 108 % of control | dose: 64.0 mg/kg/injection, schedule: Q01DX009 (oral), vehicle: saline 114 % of control | dose: 64.0 mg/kg/injection, schedule: Q03HX008 (ip), vehicle: saline 109 % of control | dose: 64.0 mg/kg/injection, schedule: Q03HX016 (ip), vehicle: saline 111 % of control | dose: 64.0 mg/kg/injection, schedule: Q03HX024 (ip), vehicle: saline 117 % of control | dose: 64.0 mg/kg/injection, schedule: Q04DX003 (ip), vehicle: saline 100 % of control | dose: 64.0 mg/kg/injection, schedule: Q08DX002 (ip), vehicle: saline 104 % of control | dose: 75.0 mg/kg/injection, schedule: Q01DX Z (ip), vehicle: water 95 % of control and 105 % of control | dose: 100.0 mg/kg/injection, schedule: Q01DX Z (ip), vehicle: water 96 % of control and 103 % of control | dose: 128.0 mg/kg/injection, schedule: Q01DX001 (ip), vehicle: saline 100 % of control | dose: 128.0 mg/kg/injection, schedule: Q01DX001 (oral), vehicle: saline 108 % of control | dose: 128.0 mg/kg/injection, schedule: Q01DX009 (ip), vehicle: saline 124 % of control | dose: 128.0 mg/kg/injection, schedule: Q01DX009 (oral), vehicle: saline 119 % of control | dose: 128.0 mg/kg/injection, schedule: Q04DX003 (ip), vehicle: saline 103 % of control | dose: 128.0 mg/kg/injection, schedule: Q08DX002 (ip), vehicle: saline 103 % of control | dose: 150.0 mg/kg/injection, schedule: Q01DX Z (ip), vehicle: water 105 % of control and 89 % of control | dose: 256.0 mg/kg/injection, schedule: Q01DX001 (ip), vehicle: saline 109 % of control | dose: 256.0 mg/kg/injection, schedule: Q01DX001 (oral), vehicle: saline 108 % of control | dose: 256.0 mg/kg/injection, schedule: Q01DX009 (ip), vehicle: saline 103 % of control | dose: 256.0 mg/kg/injection, schedule: Q04DX003 (ip), vehicle: saline 105 % of control | dose: 256.0 mg/kg/injection, schedule: Q08DX002 (ip), vehicle: saline 109 % of control

c1ccc(C2=NN=C(c3ccccc3)CCC2)cc1
inactive: dose: 100.0 mg/kg/injection, schedule: Q04DX003 (ip), vehicle: acetone 95 % of control | dose: 200.0 mg/kg/injection, schedule: Q04DX003 (ip), vehicle: acetone 86 % of control | dose: 400.0 mg/kg/injection, schedule: Q04DX003 (ip), vehicle: acetone 98 % of control
